The values that follow come from BindingDB's records for doi:10.1016/j.bmc.2007.10.061 (Osi Pharmaceuticals, 2008).

Structures are written as SMILES.

For assay [1], the target named is Mitogen-activated protein kinase 1 (ERK2) (Homo sapiens) (UniProt P28482). In words: Inhibition of MAPK2.
Assay [2] concerns the target 3-phosphoinositide-dependent protein kinase 1 (PDPK1) (Homo sapiens) (UniProt O15530). The assay is described as follows: Inhibition of PDK1.

Sequence of Mitogen-activated protein kinase 1 (ERK2) (Homo sapiens) (P28482 whole entry, looked up): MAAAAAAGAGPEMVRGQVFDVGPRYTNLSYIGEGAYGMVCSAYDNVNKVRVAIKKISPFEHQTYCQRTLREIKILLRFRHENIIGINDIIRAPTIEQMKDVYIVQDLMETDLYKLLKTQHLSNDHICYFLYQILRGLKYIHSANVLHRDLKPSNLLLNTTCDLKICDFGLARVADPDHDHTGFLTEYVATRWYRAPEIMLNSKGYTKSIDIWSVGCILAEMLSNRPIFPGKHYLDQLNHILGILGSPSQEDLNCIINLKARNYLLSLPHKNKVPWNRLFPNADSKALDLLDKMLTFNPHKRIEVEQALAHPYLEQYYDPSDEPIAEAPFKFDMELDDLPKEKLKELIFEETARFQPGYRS

As a reminder, the IC50 is the point on the concentration scale where inhibition reaches its midpoint. Take `Nc1nccn2c1c(-c1ccc3ccc(-c4ccccc4)nc3c1)nc2[C@H]1C[C@@H](CN2CCC2)C1` [cis-3-(3-(azetidin-1-ylmethyl)cyclobutyl)-1-(2-phenylquinolin-7-yl)imidazo[1,5-a]pyrazin-8-amine]: the IC50 in assay [1] was greater than 10 µM; in assay [2] it was greater than 30 µM.
